Test systems include HT-29; LOX IMVI; BT-549; A498; SN12C; MDA-N; NCI-H522; U-251; UO-31; SW-620; ACHN; HOP-62; SNB-75; HOP-92; IGROV-1; OVCAR-8; EKVX; DU-145; HCT-15; SR.
Common to all, as to test: inhibition of tumour cell growth, NCI panel, 48 h

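Step 1: Grow cells in 96-well plates. Step 2: Expose to compound for 48 hours at 5 concentrations. Step 3: Interpolate endpoints linearly; if unreached, use highest concentration. Here, GI50 denotes the concentration required for 50% inhibition of growth.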 Active and inactive are the calls of the source. Rule as the data show it: active = GI50 up to about 1.1 µM and inactive = higher.

The record followed here is ChEMBL document CHEMBL1201862, “PubChem BioAssay data set” (2004).

With `O=C(O)CN1CCN2CCCCCCCCN(CC1)CCN(CC(=O)O)CC2`, the GI50 with HT-29 is 43.5 µM (inactive); with LOX IMVI, > 100 µM (inactive); in the assay on BT-549 it was > 100 µM (inactive); with A498, > 100 µM (inactive); in the assay on SN12C it was > 100 µM (inactive); in the assay with MDA-N, > 100 µM (inactive). Further, the GI50 was 64.6 µM (inactive) in the assay with NCI-H522; > 100 µM (inactive) in the assay on U-251; > 100 µM (inactive) with UO-31; > 100 µM (inactive) with SW-620; > 100 µM (inactive) in the assay on ACHN; > 100 µM (inactive) in the assay with HOP-62. The GI50 is 21.9 µM (inactive) with SNB-75; > 100 µM (inactive) with HOP-92; > 100 µM (inactive) in the assay on IGROV-1; > 100 µM (inactive) with OVCAR-8; > 100 µM (inactive) in the assay on EKVX; > 100 µM (inactive) with DU-145. The GI50 with HCT-15 is greater than 100 µM.

Take `CCOC(=O)c1cc(=O)c2cccc3c2n1CCS3`: the GI50 in the assay with HT-29 was > 100 µM (inactive); with LOX IMVI, > 100 µM (inactive); in the assay on BT-549, 42.9 µM (inactive); in the assay with A498 it was 83.8 µM (inactive); in the assay on SN12C, > 100 µM (inactive); in the assay with MDA-N, > 100 µM (inactive). Moreover, the GI50 in the assay with NCI-H522 is 91.4 µM (inactive); with U-251 it was > 100 µM (inactive); in the assay on UO-31, 77.8 µM (inactive); in the assay with SW-620, > 100 µM (inactive); in the assay on ACHN, > 100 µM (inactive); in the assay with HOP-62 it was > 100 µM (inactive). Moreover, the GI50 in the assay on SNB-75, in the assay on HOP-92, in the assay on IGROV-1, in the assay on OVCAR-8, in the assay with EKVX and in the assay with DU-145 was > 100 µM (inactive) each time. The GI50 in the assay with HCT-15 is greater than 100 µM.

Consider `COc1cc2c(cc1OC)C1C(O)C(OC)C=C3CC[N+](C)(C2)C31` (stereo unspecified), for which the GI50 in the assay on HT-29, with BT-549, with A498, in the assay with SN12C, in the assay on MDA-N and in the assay on NCI-H522 was > 100 µM (inactive) throughout. In addition, the GI50 with U-251, in the assay on UO-31, in the assay on SW-620, with ACHN, in the assay on HOP-62 and in the assay with SNB-75 was > 100 µM (inactive) each time. In addition, the GI50 was > 100 µM (inactive) in the assay on HOP-92; > 100 µM (inactive) with IGROV-1; > 100 µM (inactive) with OVCAR-8; > 100 µM (inactive) in the assay on EKVX; > 100 µM (inactive) in the assay on DU-145; greater than 100 µM with HCT-15.

On to `N#CC12C(=O)N3C(=NC(c4ccccc4)NC3c3ccccc3)C1(C#N)C(c1ccccc1)NC1=C2CCCC1` (stereo unspecified), for which the GI50 in the assay on HT-29, in the assay with LOX IMVI, in the assay on BT-549, in the assay on A498, with SN12C and in the assay with MDA-N was > 100 µM (inactive) in each case. The GI50 in the assay on NCI-H522, in the assay with U-251, in the assay on UO-31, in the assay with SW-620, with ACHN and with HOP-62 was > 100 µM (inactive) in each case. The GI50 with SNB-75, in the assay on HOP-92, in the assay with IGROV-1, with OVCAR-8, in the assay with EKVX and in the assay with DU-145 was > 100 µM (inactive) each time. Further, the GI50 in the assay on HCT-15 is greater than 100 µM.

In the case of `N#Cc1cc(-c2nc3ccc(F)cc3s2)ccc1N`, the GI50 in the assay on HT-29 is > 100 µM (inactive); with LOX IMVI it was 74.8 µM (inactive); in the assay on BT-549 it was > 100 µM (inactive); with A498 it was > 100 µM (inactive); with SN12C, > 100 µM (inactive); in the assay with MDA-N, 22.1 µM (inactive). Besides, the GI50 is > 100 µM (inactive) in the assay on NCI-H522; 63 µM (inactive) with U-251; > 100 µM (inactive) in the assay on UO-31; > 100 µM (inactive) with SW-620; > 100 µM (inactive) in the assay on ACHN; 72.1 µM (inactive) with HOP-62. Further, the GI50 was 14.7 µM (inactive) with SNB-75; > 100 µM (inactive) with HOP-92; 3.27 µM (inactive) in the assay with IGROV-1; > 100 µM (inactive) with OVCAR-8; 31.8 µM (inactive) with EKVX; > 100 µM (inactive) in the assay on DU-145. The GI50 with HCT-15 was 87.7 µM.

Regarding `O=C(/C=C/c1ccc(F)c(F)c1)OCCc1ccccc1`, the GI50 in the assay with HT-29 was 34.5 µM (inactive); in the assay on LOX IMVI, 89.9 µM (inactive); in the assay on BT-549, > 100 µM (inactive); in the assay with SN12C, > 100 µM (inactive); in the assay with MDA-N, 73.5 µM (inactive); in the assay on SR, 90.6 µM (inactive). Besides, the GI50 was 38.6 µM (inactive) in the assay with NCI-H522; > 100 µM (inactive) in the assay with U-251; 90.4 µM (inactive) with UO-31; > 100 µM (inactive) with SW-620; > 100 µM (inactive) in the assay with ACHN; > 100 µM (inactive) in the assay with HOP-62. The GI50 with SNB-75 is 84.5 µM (inactive); in the assay on IGROV-1, > 100 µM (inactive); in the assay on OVCAR-8, > 100 µM (inactive); with EKVX, > 100 µM (inactive); in the assay on DU-145 it was > 100 µM (inactive); with HCT-15 it was 58.5 µM.

Turning to `CC(=O)OCC1OC(OC(C)=O)C(Nc2ncc(-c3ccc(C)cc3)s2)C(OC(C)=O)C1OC(C)=O` (stereo unspecified), the GI50 in the assay on HT-29 was 21.2 µM (inactive); in the assay on LOX IMVI, 13.2 µM (inactive); in the assay on BT-549, 18.6 µM (inactive); with SN12C, 18.2 µM (inactive); with MDA-N it was 18.4 µM (inactive); with SR, 26.4 µM (inactive). In addition, the GI50 in the assay with NCI-H522 is 15.7 µM (inactive); with U-251 it was 17 µM (inactive); in the assay with UO-31, 14.7 µM (inactive); in the assay on SW-620, 13.7 µM (inactive); with ACHN, 14.6 µM (inactive); in the assay on HOP-62, 20.4 µM (inactive). Also, the GI50 with SNB-75 was 15.5 µM (inactive); in the assay with IGROV-1 it was 17.3 µM (inactive); in the assay with OVCAR-8, 24 µM (inactive); with EKVX it was 14.3 µM (inactive); in the assay with DU-145, 31.3 µM (inactive); in the assay on HCT-15 it was 22.5 µM.

Take `COc1ccc(C(O)c2nccn2C)c(OC)c1` (stereo unspecified): the GI50 with HT-29, in the assay on BT-549, with SN12C, with MDA-N, with SR and in the assay with NCI-H522 was > 100 µM (inactive) throughout. Besides, the GI50 in the assay on U-251 is > 100 µM (inactive); in the assay on UO-31 it was > 100 µM (inactive); in the assay with SW-620, > 100 µM (inactive); in the assay on ACHN, > 100 µM (inactive); in the assay with HOP-62 it was > 100 µM (inactive); with SNB-75 it was 29.6 µM (inactive). The GI50 was > 100 µM (inactive) in the assay with HOP-92; > 100 µM (inactive) in the assay on IGROV-1; > 100 µM (inactive) with OVCAR-8; > 100 µM (inactive) with EKVX; > 100 µM (inactive) in the assay on DU-145; greater than 100 µM in the assay on HCT-15.

On to `C/C(=N\c1c2ccccc2nc2ccccc12)N(C)C`, for which the GI50 in the assay with HT-29 is 9.48 µM (inactive); in the assay on LOX IMVI, 11.6 µM (inactive); in the assay with BT-549 it was 25.8 µM (inactive); in the assay with MDA-N, 21.6 µM (inactive); in the assay on SR it was 3.47 µM (inactive); in the assay with NCI-H522 it was 10.7 µM (inactive). Also, the GI50 in the assay on U-251 is 23 µM (inactive); in the assay on UO-31, 9.64 µM (inactive); in the assay with ACHN, 19.8 µM (inactive); in the assay on HOP-62 it was 16.5 µM (inactive); in the assay on SNB-75 it was 24.1 µM (inactive); in the assay with HOP-92 it was 10.6 µM (inactive). Further, the GI50 with IGROV-1 is 23.9 µM (inactive); in the assay with OVCAR-8, 13.3 µM (inactive); in the assay with EKVX, 32.7 µM (inactive); with DU-145, 29 µM (inactive); in the assay on HCT-15, 28.6 µM.

Consider `CCN(CC)CCN(/C(=N/c1ccccc1)N1CCCCC1)c1ccccc1`, for which the GI50 in the assay on HT-29 is 1.71 µM (inactive); with LOX IMVI, 3.14 µM (inactive); in the assay on BT-549, 13.7 µM (inactive); in the assay with SN12C, 7 µM (inactive); in the assay on MDA-N, 1.78 µM (inactive); in the assay on SR, 3.4 µM (inactive). Also, the GI50 in the assay with NCI-H522 was 2.62 µM (inactive); in the assay on U-251, 12.7 µM (inactive); with UO-31 it was 8.07 µM (inactive); with SW-620, 6.05 µM (inactive); with HOP-62 it was 8.18 µM (inactive); in the assay on SNB-75, > 10 µM (inactive). Also, the GI50 was 2.75 µM (inactive) with IGROV-1; 12.2 µM (inactive) in the assay with OVCAR-8; 14.1 µM (inactive) in the assay with EKVX; 20.2 µM (inactive) with DU-145; 17.2 µM in the assay on HCT-15.

As to `CC(=O)N/N=C1\NC(=O)C[C@H]2[C@@H]3CC=C4C[C@@H](OC(C)=O)CC[C@]4(C)[C@H]3CC[C@]12C`, the GI50 was 31.4 µM (inactive) in the assay on HT-29; 35.4 µM (inactive) in the assay on LOX IMVI; 12.4 µM (inactive) with BT-549; 18.7 µM (inactive) in the assay with A498; 29.6 µM (inactive) in the assay on SN12C; 7.16 µM (inactive) in the assay on MDA-N. The GI50 with NCI-H522 was 32.1 µM (inactive); in the assay with U-251 it was 12.8 µM (inactive); in the assay with UO-31 it was 40.6 µM (inactive); in the assay on SW-620, 23.7 µM (inactive); with ACHN, 21.5 µM (inactive); in the assay on HOP-62, 13.6 µM (inactive). Moreover, the GI50 was 20.9 µM (inactive) in the assay with SNB-75; 15.9 µM (inactive) in the assay on HOP-92; 31 µM (inactive) in the assay with IGROV-1; 25.1 µM (inactive) in the assay with OVCAR-8; 36.1 µM (inactive) in the assay with EKVX; 74 µM (inactive) with DU-145. In the assay on HCT-15, this compound gave a GI50 of 38.2 µM.
